Source: US6218405A, “Heteroarylsulfonamide derivatives and pharmaceutical compositions containing them” (KNOLL Aktiengesellschaft, priority 1996, dated 2001)

Experiments:
[1] = system: D2-like dopamine receptors; assay: D2-like dopamine receptor binding: displacement of tritiated (S)-sulpiride in rat striatal tissue; parameters: species or system male Charles River CD rats; conditions: tritiated (S)-sulpiride 1 nM, 4° C., 40 minutes
Method: Striatal tissue from the brains of male Charles River CD rats weighing between 140-250 g were homogenised in ice-cold 50 mM Tris-HCl buffer (pH 7.7 when measured at 25° C.) and centrifuged at 40,000 g for 10 minutes. The pellet was resuspended in Tris salts buffer (50 mM Tris-HCl buffer containing 120 mM NaCl, 5 mM KCl, 2 mM CaCl2 and 1 mM MgCl2 with the addition of 6 mM ascorbic acid; pH 7.7 when measured at 25° C.), and again centrifuged at 40,000 g for 10 minutes. The final pellet was stored at -80° C. Before each test the pellet was resuspended in Tris salts buffer (equivalent to 2 mg wet weight of tissue/ml). Aliquots (720 μl; equivalent to 1.44 mg wet weight of tissue/tube) of this suspension were then added to tubes containing the ligand (40 μl; 1 nM) and Tris salts buffer (40 μl; total binding) or spiroperidol (40 μl; 10 nM; non-specific binding) or test compound (40 μl; at a single concentration of 10^-6 M or at 6 concentrations ranging from 10^-11 -10^-4 M). The ligand was tritiated (S)-sulpiride and the mixture was incubated at 4° C. for 40 minutes before the incubation was terminated by rapid filtration.
The filters were washed with ice-cold Tris-HCl buffer and dried. The filters were punched out in to vials, scintillation fluid added and were left for about 20 hours before being counted by scintillation spectrophotometry. The percentage displacement of specific binding of the tritiated ligand was calculated for the single concentration (10^-6 M) of test compound. Displacement curves were then produced over a range of concentrations for those compounds which displaced ≥50% of specific binding of the tritiated ligand at 10^-6 M. The concentration which gave a 50% inhibition of specific binding (IC50) was obtained from the curve. The inhibition coefficient Ki was then calculated using the formula [formula]
(§1) in which [ligand] is the concentration of the tritiated ligand used and KD is the equilibrium dissociation constant for the ligand.
(§2) The % figures in Table 1 are for % displacement at 10^-6 M.

5-HT1A receptors = molecular target: T1, 5-HT1A receptors (Rattus norvegicus, UniProt P19327); assay: 5-HT1A receptor binding: displacement of [3H]8-hydroxy-2-(dipropylamino)tetralin in rat hippocampal tissue; parameters: species or system male Charles River CD rats; conditions: 0.5 h, 10^-6 M, [3H]-OH-DPAT 2 nM, 25° C., 30 minutes, read-out: % displacement at 10^-6 M, 5-HT1A (column headed Ki (nM) value for 5-HT1A)
T1 construct: Hippocampal tissue from the brains of male Charles River CD rats; from tissue; host or cells: hippocampal tissue from brains of male Charles River CD rats
T1 sequence (P19327 1-422): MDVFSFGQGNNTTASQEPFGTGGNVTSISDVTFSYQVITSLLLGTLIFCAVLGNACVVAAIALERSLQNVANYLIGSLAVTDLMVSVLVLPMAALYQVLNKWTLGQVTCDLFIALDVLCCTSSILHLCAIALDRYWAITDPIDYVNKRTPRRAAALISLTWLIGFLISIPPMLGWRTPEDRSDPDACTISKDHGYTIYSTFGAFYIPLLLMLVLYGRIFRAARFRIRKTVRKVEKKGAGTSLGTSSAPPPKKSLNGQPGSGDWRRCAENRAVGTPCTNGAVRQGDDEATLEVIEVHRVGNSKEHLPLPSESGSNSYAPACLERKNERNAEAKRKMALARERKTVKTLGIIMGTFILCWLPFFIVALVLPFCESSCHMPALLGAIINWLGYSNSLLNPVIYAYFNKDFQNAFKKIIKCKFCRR
Method: Hippocampal tissue from the brains of male Charles River CD rats weighing between 150-250 g were homogenised in ice-cold 50 mM Tris-HCl buffer (pH 7.7) when measured at 25° C., 1:40 w/v) and centrifuged at 30,000 g at 4° C. for 10 minutes. The pellet was rehomogenised in the same buffer, incubated at 37° C. for 10 minutes and centrifuged at 30,000 g at 4° C. for 10 minutes. The final pellet was resuspended in 50 mM Tris-HCl buffer (pH 7.7) containing 4 mM CaCl2, 0.1% L-ascorbic acid and 10 μM pargyline hydrochloride (equivalent to 6.25 mg wet weight of tissue/ml) and used immediately in the binding assay. Aliquots (400 μl; equivalent to 2.5 mg wet weight of tissue/tube) of this suspension were added to tubes containing the ligand (50 μl; 2 nM) and distilled water (50 μl; total binding) or 5-HT (50 μl; […]; non-specific binding) or test compound (50 μl; at a single concentration of 10^-6 M or at 10 concentrations ranging from 10^-11 -10^-3 M). The ligand was [^3 H]8-hydroxy-2-(dipropylamino)tetralin ([^3 H]-OH-DPAT) and the mixture was incubated at 25° C. for 30 minutes before the incubation was terminated by rapid filtration.
The filters were washed with ice-cold Tris-HCl buffer and dried. The filters were punched out into vials, scintillation fluid added and radioactivity determined by liquid scintillation counting. The percentage displacement of specific binding of the tritiated ligand was calculated for the single concentration (10^-6 M) of test compound. Displacement curves were then produced for those compounds which displaced ≥50% of specific binding of the tritiated ligand at 10^-6 M using a range of concentrations of the compound. The concentration which gave 50% inhibition of specific binding (IC50) was obtained from the curve. The inhibition coefficient Ki was then calculated using the formula [formula]
as §1, §2

% displacement at 10^-6 M, D2-like (column headed Ki (nM) value for D2-like) [1] [%]	inhibition at 1 µM (5-HT1A receptors) [%]	Structure (SMILES)
106	98	O=S(=O)(NCC1CCN(C[C@H]2COc3ccc4scc(Cl)c4c3O2)CC1)c1ccccn1 [Example 1, (S)-N{[1-(9-chloro-2,3-dihydrothieno[3,2-f][1,4]benzodioxin-2-ylmethyl)piperid-4-yl]methyl}pyridine-2-sulphonamide]
105	99	O=S(=O)(NCC1CCN(C[C@H]2COc3ccc4[nH]ccc4c3O2)CC1)c1ccccn1 [Example 2, (S)-N-{[1-(2,3-dihydro-7H-1,4-dioxino[2,3-e]indol-2-ylmethyl)piperid-4-yl]methyl}pyridine-2-sulphonamide]
105	97	CC(=O)Nc1ccc(S(=O)(=O)NCC2CCN(C[C@H]3COc4ccc5[nH]ccc5c4O3)CC2)cc1 [Example 3, (S)-4-acetamido-N-{[1-(2,3-dihydro-7H-1,4-dioxino[2,3-e]indol-2-ylmethyl)piperid-4-yl]methyl}benzenesulphonamide]
